Results as given in article PMC5744864, “Indole and Benzimidazole Bichalcophenes: Synthesis, DNA Binding and Antiparasitic Activity” (European Journal of Medicinal Chemistry, 2018).
Where a name gives a salt, the structure may show the parent alone. Read-outs that look alike come from different tables or passages of the source.

Legend:
poly(dA-dT)n = experiment: Thermal melting (ΔTm) of poly(dA-dT) DNA; assay type: binding; details: ratio 0.3 mol compound per mole of DNA; CAC 10 buffer pH 7.0
Protocol: Thermal melting experiments were performed with a Cary 300 spectrophotometer. Cuvettes were mounted in a thermal block where the solution temperatures were mesaured with a thermistor in the reference cuvette. Temperatures were maintained under computer control and increased at 0.5 °C/min. The experiments were performed in 1 cm path length quartz cuvettes in CAC 10 buffer (cacodylic acid 10 mM, EDTA 1 mM, NaCl 100 mM with NaOH added to give pH = 7.0). Poly (dA-dT) DNA concentrations were determined by measuring its absorbance at 260 nm. A ratio of 0.3 mol compound per mole of DNA was used for the complex and DNA alone was used as control. ΔTm values were determined from the peak of first derivative curves (dA/dT).

Poly(dA).Poly(dT) = experiment: Circular dichroism titration with Poly(dA).Poly(dT); assay type: binding; details: 20 μM Poly(dA).Poly(dT), 10 mM MES, 100 mM NaCl, 1 mM EDTA, 25 °C
Protocol: Fig. 2 Circular dichroism spectra of the titration of representative compounds, (4a, 4d, 8a, 8b, 8c) with a 20 μM Poly(dA).Poly(dT) sequence in the buffer (10 mM MES, 100 mM NaCl, 1 mM EDTA, at pH, 7.4) at 25 °C.
CD spectra were collected employing a Jasco J-810 spectrometer at 25 °C using different ratios of compound to DNA at 25 °C in MES 10 buffer (10 mM MES, 100 mM NaCl, I mM EDTA).First, a DNA solution in a 1-cm quartz cuvette was scanned over the desired wavelength range. Tested compounds at increasing ratios, were titrated into the same cuvette and the complexes rescanned under the same conditions.

[1] = tested on: T. b. r. (Trypanosoma brucei rhodesiense) STIB900; experiment: In vitro viability assay, T. b. r. strain STIB900; assay type: cell-based; details: for IC50: Trypanosoma brucei, read-out: T. b. r. IC50; for SI/T. b. r., Selectivity Index IC50 (L6)/IC50 (T b.r.): ratio L6 versus T. b. r. STIB900
Protocol: (§1) The in vitro viability assays were with the T. b. r. strain STIB 900 and the chloroquine resistant P. f. strain K1. The efficacy studies were with the STIB900 acute mouse model for T. b. r. infections. Dosage was 4 × 5 mg/kg i.p. performed as previously described in detail. Cytotoxicity was evaluated in L6 rat myoblast cells as previously reported in detail.

[2] = Cytotoxicity in L6 rat myoblast cells; assay type: cell-based; details: cultured L6 rat myoblast cells; read-out: Cytotox. IC50 (L6)
Protocol: as §1

[3] = tested on: P. f. (Plasmodium falciparum) strain K1; experiment: In vitro viability assay, chloroquine resistant P. f. strain K1; assay type: cell-based; details: for IC50: Plasmodium falciparum; for SI/P.f, Selectivity Index IC50 (L6)/IC50 (P.f.): ratio L6 versus P. f. K1
Protocol: as §1

[4] = tested on: T. b. rhodesiense (STIB900) infected mice; experiment: STIB900 acute mouse model for T. b. r. infections; assay type: in vivo; details: 4 × 5 mg/kg i.p.; for In vivo (cures), cured/infected mice: T. b. rhodesiense (STIB900) infected mice; for In vivo cure of infected mice (in words): T. b. rhodesiense infected mice
Protocol: The excellent in vitro activity and selectivity of the indole bichalcophenes diamidines (4a-d) encouraged us to test them in vivo in the rigorous T. b. r. STIB900 mouse model (Table 1) for the acute hemolymphatic stage of the African trypanosomiasis. The dosage applied was low with a daily intraperitoneal (i.p.) dose of 5 mg/kg compound for four consecutive days.
as §1

[5] = tested on: T. b. rhodesiense (STIB900) infected mice; design: method as in PMID 23959303; details: 5 mg/kg i.p. daily for four consecutive days; cited from earlier work
[6] = strain STIB900, average of duplicate determinations

| SMILES | melting point [°C] | ΔTm, thermal melting increase of poly(dA-dT)n (poly(dA-dT)n) | Induced CD signal on binding (minor groove binding) (Poly(dA).Poly(dT)) | SI/T. b. r., Selectivity Index IC50 (L6)/IC50 (T b.r.) [1] | IC50 [2] [nM] | other results |
| --- | --- | --- | --- | --- | --- | --- |
| N=C(N)c1ccc2cc(-c3ccc(-c4ccc(C(=N)N)o4)o3)[nH]c2c1 (as salt: hydrochloride) [Compound 4a, 2-(5′-Amidino-2,2′-bifuran-5-yl)-1H-indole-6-amidine hydrochloride salt] | > 300 |  |  |  |  |  |
| N=C(N)c1ccc2cc(-c3ccc(-c4ccc(C(=N)N)s4)o3)[nH]c2c1 (as salt: hydrochloride) [Compound 4b, 2-(5-(5-Amidinothiophen-2-yl)furan-2-yl)-1H-indole-6-amidine hydrochloride salt] | > 300 |  |  |  |  |  |
| N=C(N)c1ccc2cc(-c3ccc(-c4ccc(C(=N)N)o4)s3)[nH]c2c1 (as salt: hydrochloride) [Compound 4c, 2-(5-(5-Amidinofuran-2-yl)thiophen-2-yl)-1H-indole-6-amidine hydrochloride salt] | > 300 |  |  |  |  |  |
| N=C(N)c1ccc2cc(-c3ccc(-c4ccc(C(=N)N)s4)s3)[nH]c2c1 (as salt: hydrochloride) [Compound 4d, 2-(5′-Amidino-2,2′-bithiophen-5-yl)-1H-indole-6-amidine hydrochloride salt] | > 300 |  |  |  |  |  |
| N=C(N)c1ccc2nc(-c3ccc(-c4ccc(C(=N)N)o4)o3)[nH]c2c1 (as salt: hydrochloride) [Compound 8a, 2-(5′-Amidino-2,2′-bifuran-5-yl)-1H-benzimidazole-5(6)-amidine hydrochloride salt] | > 300 |  |  |  |  |  |
| N=C(N)c1ccc2nc(-c3ccc(-c4ccc(C(=N)N)s4)o3)[nH]c2c1 (as salt: hydrochloride) [Compound 8b, 2-(5-(5-Amidinothiophen-2-yl)furan-2-yl)-1H-benzimidazole-5(6)-amidine hydrochloride salt] | > 300 |  |  |  |  |  |
| N=C(N)c1ccc2nc(-c3ccc(-c4ccc(C(=N)N)s4)s3)[nH]c2c1 (as salt: hydrochloride) [Compound 8c, 2-(5′-Amidino-2,2′-bithiophen-5-yl)-1H-benzimidazole-5(6)-amidine hydrochloride salt] | > 300 |  |  |  |  |  |
| N=C(N)c1ccc2cc(-c3ccc(-c4ccc(C(=N)N)o4)o3)[nH]c2c1 [Compound 4a, 2-(5′-Amidino-2,2′-bifuran-5-yl)-1H-indole-6-amidine hydrochloride salt] |  | 28 ^oC | very strong induced CD signals | 1100 | 16500 | IC50 [1]: 15 nM; IC50 ([3]; K1, read-out: P.f. IC50): 2.9 nM; In vivo (cures), cured/infected mice [4]: 0/4 |
| N=C(N)c1ccc2cc(-c3ccc(-c4ccc(C(=N)N)s4)o3)[nH]c2c1 [Compound 4b, 2-(5-(5-Amidinothiophen-2-yl)furan-2-yl)-1H-indole-6-amidine hydrochloride salt] |  | >30 ^oC |  | 1046 | 15700 | IC50 [1]: 15 nM; IC50 ([3]; K1, read-out: P.f. IC50): 7.3 nM; SI/P.f, Selectivity Index IC50 (L6)/IC50 (P.f.) [3]: 2150; In vivo (cures), cured/infected mice [4]: 0/4 |
| N=C(N)c1ccc2cc(-c3ccc(-c4ccc(C(=N)N)o4)s3)[nH]c2c1 [Compound 4c, 2-(5-(5-Amidinofuran-2-yl)thiophen-2-yl)-1H-indole-6-amidine hydrochloride salt] |  | 28 ^oC |  | 4400 | 17600 | IC50 [1]: 4 nM; IC50 ([3]; K1, read-out: P.f. IC50): 6.8 nM; SI/P.f, Selectivity Index IC50 (L6)/IC50 (P.f.) [3]: 2588; Sterile cures in mice infected with T. b. r. ([4]; STIB900 mouse model): 100%; In vivo (cures), cured/infected mice [4]: 4/4; In vivo cure of infected mice (in words) [4]: curing all T. b. r. infected mice |
| N=C(N)c1ccc2cc(-c3ccc(-c4ccc(C(=N)N)s4)s3)[nH]c2c1 [Compound 4d, 2-(5′-Amidino-2,2′-bithiophen-5-yl)-1H-indole-6-amidine hydrochloride salt] |  | >30 ^oC | very strong induced CD signals | 5800 | 11600 | IC50 [1]: 2 nM; IC50 ([3]; K1, read-out: P.f. IC50): 6.8 nM; SI/P.f, Selectivity Index IC50 (L6)/IC50 (P.f.) [3]: 1705; In vivo (cures), cured/infected mice [4]: 0/4 |
| N#Cc1ccc2nc(-c3ccc(-c4ccc(C#N)s4)s3)[nH]c2c1 [Compound 7c, 2-(5′-Cyano-2,2′-bithiophen-5-yl)-1H-benzimidazole-5(6)-carbonitrile] | > 300 |  |  |  |  | In vivo cure of infected mice (in words) [4]: cured all mice |
| N=C(N)c1ccc2nc(-c3ccc(-c4ccc(C(=N)N)o4)o3)[nH]c2c1 [Compound 8a, 2-(5′-Amidino-2,2′-bifuran-5-yl)-1H-benzimidazole-5(6)-amidine hydrochloride salt] |  | 29 ^oC | very strong induced CD signals | 409 | 41800 | IC50 [1, 6]: 102 nM; IC50 ([3]; chloroquine resistant strain K1, average of duplicate determinations, read-out: P.f. IC50): 91.9 nM; SI/P.f, Selectivity Index IC50 (L6)/IC50 (P.f.) [3]: 454 |
| N=C(N)c1ccc2nc(-c3ccc(-c4ccc(C(=N)N)s4)o3)[nH]c2c1 [Compound 8b, 2-(5-(5-Amidinothiophen-2-yl)furan-2-yl)-1H-benzimidazole-5(6)-amidine hydrochloride salt] |  | 27 ^oC | very strong induced CD signals | 234 | 15000 | IC50 [1, 6]: 64 nM |
| N=C(N)c1ccc2nc(-c3ccc(-c4ccc(C(=N)N)s4)s3)[nH]c2c1 [Compound 8c, 2-(5′-Amidino-2,2′-bithiophen-5-yl)-1H-benzimidazole-5(6)-amidine hydrochloride salt] |  | >30 ^oC | very strong induced CD signals | 1048 | 26200 | IC50 [1, 6]: 25 nM |
| N=C(N)c1ccc(OCCCCCOc2ccc(C(=N)N)cc2)cc1 [pentamidine, Pentamidine] |  |  |  |  |  | In vivo (cures), cured/infected mice [5]: 1/4 |
